In paper PMC6120666 (The EMBO Journal, 2018):

How the values were obtained:
Test in all cases: Drug affinity chromatography with c-ponatinib and LC-MS/MS (ponatinib interactome)
Assay type in all cases: binding
[1] = biological target: T1, proteins of U2OS cell lysate (Homo sapiens, UniProt O43175)
T1 construct: Proteins enriched by c-ponatinib from U2OS cell lysate; endogenous in cells; host or cells: U2OS cell lysate
Experimental: (§1) Drug affinity chromatography
(§2) U2OS cells were grown until approximately 80% confluent before being pelleted and washed with PBS. Cell pellets were subsequently lysed in buffer A (50 mM Tris pH 7.5, 0.8% v/v NP-40, 5% v/v glycerol, 1.5 mM MgCl2, 100 mM NaCl, 25 mM NaF, 1 mM Na3VO4, 1 mM PMSF, 1mM DTT, 10 μg/mL TLCK, 1 μg/ml Leupeptin, 1 μg/ml Aprotinin, 1 μg/ml soy bean trypsin) and lysates prepared […]
(§3) concentration was determined and lysates stored at -80 °C.
(§4) Briefly, 100 μl of bead slurry (50% in isopropanol) were used for each pulldown experiment. Beads were washed with DMSO (3 × 500 μl), and resuspended in DMSO (50 μl), to which the amine (0.025 μmol) and triethylamine (0.75 μl) were added. The beads were incubated at room temperature for 16 h, and depletion of free amine from the supernatant was determined by LC-MS analysis. Ethanolamine (2.5 μl) was then added to block any unreacted NHS sites, and the beads incubated for a further 16 h. Derivatized beads were then washed with DMSO (3 × 500 μl), buffer A (3 × 1 ml), and incubated with cell lysates (2 mg of protein per pulldown, at 6 […]
(§5) Beads and treated lysates were incubated for 2 h at 4 °C before washing with buffer A (5 ml), Buffer B (50 mM HEPES pH 7.5, 100 mM NaCl, 500 μM EDTA, 2.5 ml), and eluted with formic acid (100 mM, 250 μl). Samples were neutralized with triethylammoniumbicarbonate (TEAB, 1M, 62.5 μl) and stored at -20 °C until preparation for proteomic analysis.
(§6) Samples were reduced with DTT (10 mM final concentration) for 30 min at room temperature, alkylated with iodoacetamide (55 mM final concentration) for 30 min at room temperature, diluted to 300 μl with TEAB, and incubated with trypsin (6 μl, 0.2 mg/ml) overnight at 37 °C. The digests were desalted using SEPAC lite columns (Waters), eluted with 69 % v/v MeCN, 0.1 % v/v FA in H2O (1 ml) and dried in vacuo. Dried peptides were stored at -20 °C before resuspension in 2 % v/v MeCN, 1 % v/v FA in H2O (20 μl) for LC-MS/MS analysis.
(§7) LC-MS/MS data acquisition
(§8) Mass spectrometry data was acquired at the Discovery Proteomics Facility (University of Oxford).
(§9) Digested samples were analyzed by nano-UPLC–MS/MS using a Dionex Ultimate 3000 nano UPLC with EASY spray column (75 μm × 500 mm, 2 μm particle size, Thermo Fisher Scientific) with a 60 min gradient of 0.1 % (v/v) formic acid in 5 % (v/v) DMSO to 0.1 % (v/v) formic acid with 35 % (v/v) acetonitrile in 5 % (v/v) DMSO at a flow rate of approximately 250 nl min−1 (600 bar per 40 °C column temperature). Mass spectrometry data was acquired either with an Orbitrap Q Exactive (Survey scans acquired at a resolution of 70,000 @ 200m/z and the 15 most abundant precursors were selected for HCD fragmentation), or an Orbitrap Q Exactive High Field (HF) instrument (survey scans were […]

[2] = biological target: T2, proteins of U2OS cell lysate (Homo sapiens, UniProt O95373)
T2 construct: Proteins enriched by c-ponatinib from U2OS cell lysate; endogenous in cells; host or cells: U2OS cell lysate
T2 sequence (O95373 whole entry): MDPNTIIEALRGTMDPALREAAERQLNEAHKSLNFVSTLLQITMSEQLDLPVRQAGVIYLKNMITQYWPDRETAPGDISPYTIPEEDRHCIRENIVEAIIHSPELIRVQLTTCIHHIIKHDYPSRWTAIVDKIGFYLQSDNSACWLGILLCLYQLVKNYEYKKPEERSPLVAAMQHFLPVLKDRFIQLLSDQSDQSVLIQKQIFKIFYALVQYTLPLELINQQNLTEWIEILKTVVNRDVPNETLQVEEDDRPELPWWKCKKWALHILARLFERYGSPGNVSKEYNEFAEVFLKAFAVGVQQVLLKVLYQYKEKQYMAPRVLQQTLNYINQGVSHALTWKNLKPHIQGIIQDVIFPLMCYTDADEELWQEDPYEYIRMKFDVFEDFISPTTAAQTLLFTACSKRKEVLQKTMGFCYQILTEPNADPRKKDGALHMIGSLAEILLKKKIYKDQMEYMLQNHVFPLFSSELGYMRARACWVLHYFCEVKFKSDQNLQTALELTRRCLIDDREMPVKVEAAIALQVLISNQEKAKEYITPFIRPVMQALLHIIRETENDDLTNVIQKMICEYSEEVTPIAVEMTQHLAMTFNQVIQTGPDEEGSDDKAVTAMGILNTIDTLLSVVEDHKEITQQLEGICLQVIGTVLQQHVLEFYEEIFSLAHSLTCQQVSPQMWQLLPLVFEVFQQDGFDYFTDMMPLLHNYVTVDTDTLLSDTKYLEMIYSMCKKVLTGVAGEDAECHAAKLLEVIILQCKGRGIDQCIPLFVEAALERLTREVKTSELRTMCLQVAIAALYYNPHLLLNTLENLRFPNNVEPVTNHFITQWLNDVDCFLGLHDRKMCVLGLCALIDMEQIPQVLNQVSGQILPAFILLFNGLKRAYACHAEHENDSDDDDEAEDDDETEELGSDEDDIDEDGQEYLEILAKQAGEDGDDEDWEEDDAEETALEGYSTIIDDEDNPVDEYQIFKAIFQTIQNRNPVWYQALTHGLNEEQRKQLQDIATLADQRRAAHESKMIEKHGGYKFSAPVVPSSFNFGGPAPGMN
Experimental: as §1, §2, §3, §4, §5, §6, §7, §8, §9

[3] = biological target: T3, proteins of U2OS cell lysate (Homo sapiens, UniProt Q9Y230)
T3 construct: Proteins enriched by c-ponatinib from U2OS cell lysate; endogenous in cells; host or cells: U2OS cell lysate
T3 sequence (Q9Y230 whole entry): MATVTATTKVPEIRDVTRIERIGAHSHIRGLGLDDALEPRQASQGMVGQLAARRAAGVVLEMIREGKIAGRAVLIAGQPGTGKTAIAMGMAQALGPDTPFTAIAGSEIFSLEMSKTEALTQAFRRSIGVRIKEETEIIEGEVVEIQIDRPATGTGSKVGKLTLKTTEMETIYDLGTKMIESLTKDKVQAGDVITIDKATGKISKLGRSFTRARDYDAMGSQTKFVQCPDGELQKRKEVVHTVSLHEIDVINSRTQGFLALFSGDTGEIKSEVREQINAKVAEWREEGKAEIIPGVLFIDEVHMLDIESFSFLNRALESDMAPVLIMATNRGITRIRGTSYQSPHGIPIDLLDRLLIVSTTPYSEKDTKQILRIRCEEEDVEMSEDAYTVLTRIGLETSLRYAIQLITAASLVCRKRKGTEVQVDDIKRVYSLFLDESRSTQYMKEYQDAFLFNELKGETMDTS
Experimental: as §1, §2, §3, §4, §5, §6, §7, §8, §9

[4] = biological target: T4, proteins of U2OS cell lysate (Homo sapiens, UniProt Q96P70)
T4 construct: Proteins enriched by c-ponatinib from U2OS cell lysate; endogenous in cells; host or cells: U2OS cell lysate
Experimental: as §1, §2, §3, §4, §5, §6, §7, §8, §9

[5] = biological target: T5, proteins of U2OS cell lysate (Homo sapiens, UniProt P49006)
T5 construct: Proteins enriched by c-ponatinib from U2OS cell lysate; endogenous in cells; host or cells: U2OS cell lysate
T5 sequence (P49006 whole entry): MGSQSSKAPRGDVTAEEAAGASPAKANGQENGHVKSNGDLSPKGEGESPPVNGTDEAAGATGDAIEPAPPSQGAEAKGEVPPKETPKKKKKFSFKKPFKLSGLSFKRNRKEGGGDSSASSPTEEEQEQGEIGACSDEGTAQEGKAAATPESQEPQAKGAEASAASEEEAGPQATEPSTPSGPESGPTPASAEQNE
Experimental: as §1, §2, §3, §4, §5, §6, §7, §8, §9

[6] = biological target: T6, proteins of U2OS cell lysate (Homo sapiens, UniProt P09497)
T6 construct: Proteins enriched by c-ponatinib from U2OS cell lysate; endogenous in cells; host or cells: U2OS cell lysate
T6 sequence (P09497 whole entry): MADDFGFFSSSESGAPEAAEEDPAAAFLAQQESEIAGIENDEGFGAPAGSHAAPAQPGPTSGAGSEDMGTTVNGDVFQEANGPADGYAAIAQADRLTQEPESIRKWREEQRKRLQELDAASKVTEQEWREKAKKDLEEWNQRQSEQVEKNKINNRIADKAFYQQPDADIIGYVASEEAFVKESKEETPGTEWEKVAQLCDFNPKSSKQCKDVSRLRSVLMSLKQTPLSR
Experimental: as §1, §2, §3, §4, §5, §6, §7, §8, §9

[7] = biological target: T7, proteins of U2OS cell lysate (Homo sapiens, UniProt P25786)
T7 construct: Proteins enriched by c-ponatinib from U2OS cell lysate; endogenous in cells; host or cells: U2OS cell lysate
Experimental: as §1, §2, §3, §4, §5, §6, §7, §8, §9

[8] = biological target: T8, proteins of U2OS cell lysate (Homo sapiens, UniProt Q16891)
T8 construct: Proteins enriched by c-ponatinib from U2OS cell lysate; endogenous in cells; host or cells: U2OS cell lysate
T8 sequence (Q16891 34-758): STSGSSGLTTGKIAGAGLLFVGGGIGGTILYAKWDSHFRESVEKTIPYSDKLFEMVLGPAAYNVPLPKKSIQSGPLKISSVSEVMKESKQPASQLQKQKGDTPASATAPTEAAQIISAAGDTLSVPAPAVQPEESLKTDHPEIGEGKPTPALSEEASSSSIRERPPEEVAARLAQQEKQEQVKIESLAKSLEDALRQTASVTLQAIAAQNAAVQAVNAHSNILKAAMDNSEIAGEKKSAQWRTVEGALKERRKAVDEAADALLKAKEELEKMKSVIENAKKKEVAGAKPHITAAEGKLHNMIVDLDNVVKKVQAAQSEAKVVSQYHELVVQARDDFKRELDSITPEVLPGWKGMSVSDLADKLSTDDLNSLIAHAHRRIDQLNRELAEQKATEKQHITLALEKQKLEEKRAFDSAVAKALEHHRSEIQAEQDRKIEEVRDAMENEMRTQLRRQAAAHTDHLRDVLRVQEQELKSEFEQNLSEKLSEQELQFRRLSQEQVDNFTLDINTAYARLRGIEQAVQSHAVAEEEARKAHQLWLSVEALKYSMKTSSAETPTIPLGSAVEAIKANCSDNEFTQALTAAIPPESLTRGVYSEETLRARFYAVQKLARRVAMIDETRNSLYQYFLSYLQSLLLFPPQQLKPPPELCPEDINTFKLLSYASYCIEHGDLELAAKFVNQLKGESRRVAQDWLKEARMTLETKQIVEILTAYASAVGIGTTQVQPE
Experimental: as §1, §2, §3, §4, §5, §6, §7, §8, §9

[9] = biological target: T9, proteins of U2OS cell lysate (Homo sapiens, UniProt Q99460)
T9 construct: Proteins enriched by c-ponatinib from U2OS cell lysate; endogenous in cells; host or cells: U2OS cell lysate
T9 sequence (Q99460 whole entry): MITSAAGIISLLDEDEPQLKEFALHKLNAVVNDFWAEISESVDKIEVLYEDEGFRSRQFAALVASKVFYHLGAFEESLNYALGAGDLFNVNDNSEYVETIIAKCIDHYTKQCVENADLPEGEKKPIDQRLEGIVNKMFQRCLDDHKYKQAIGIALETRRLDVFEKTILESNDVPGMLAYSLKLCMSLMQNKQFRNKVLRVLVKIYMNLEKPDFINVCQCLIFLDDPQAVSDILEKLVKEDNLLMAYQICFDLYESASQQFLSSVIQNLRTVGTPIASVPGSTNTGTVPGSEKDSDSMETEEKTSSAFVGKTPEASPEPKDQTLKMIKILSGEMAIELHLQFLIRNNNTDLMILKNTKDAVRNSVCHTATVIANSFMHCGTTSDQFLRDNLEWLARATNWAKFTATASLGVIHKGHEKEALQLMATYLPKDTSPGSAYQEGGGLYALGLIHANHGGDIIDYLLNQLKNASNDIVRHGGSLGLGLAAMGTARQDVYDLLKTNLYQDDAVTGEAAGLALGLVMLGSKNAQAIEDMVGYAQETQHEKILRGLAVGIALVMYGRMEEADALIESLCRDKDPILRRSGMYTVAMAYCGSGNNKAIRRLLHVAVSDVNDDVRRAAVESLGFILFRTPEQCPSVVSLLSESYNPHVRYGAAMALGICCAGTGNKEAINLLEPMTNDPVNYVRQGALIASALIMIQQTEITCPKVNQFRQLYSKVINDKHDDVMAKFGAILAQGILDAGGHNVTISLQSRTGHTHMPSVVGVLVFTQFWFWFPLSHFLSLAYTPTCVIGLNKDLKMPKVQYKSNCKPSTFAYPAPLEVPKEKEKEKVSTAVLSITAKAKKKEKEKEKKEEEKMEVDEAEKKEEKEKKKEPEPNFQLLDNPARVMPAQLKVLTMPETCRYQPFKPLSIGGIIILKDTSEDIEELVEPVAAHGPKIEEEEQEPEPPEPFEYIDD
Experimental: as §1, §2, §3, §4, §5, §6, §7, §8, §9

[10] = biological target: T10, proteins of U2OS cell lysate (Homo sapiens, UniProt Q15019)
T10 construct: Proteins enriched by c-ponatinib from U2OS cell lysate; endogenous in cells; host or cells: U2OS cell lysate
T10 sequence (Q15019 whole entry): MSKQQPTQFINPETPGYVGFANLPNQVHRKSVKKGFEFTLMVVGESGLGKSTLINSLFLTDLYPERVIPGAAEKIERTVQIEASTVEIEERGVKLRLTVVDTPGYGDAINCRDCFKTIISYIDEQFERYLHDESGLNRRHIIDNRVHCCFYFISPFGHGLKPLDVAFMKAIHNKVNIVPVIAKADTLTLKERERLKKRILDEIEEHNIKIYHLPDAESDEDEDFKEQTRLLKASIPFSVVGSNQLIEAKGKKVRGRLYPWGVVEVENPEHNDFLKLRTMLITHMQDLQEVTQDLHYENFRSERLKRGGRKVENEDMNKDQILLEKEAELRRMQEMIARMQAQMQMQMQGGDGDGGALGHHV
Experimental: as §1, §2, §3, §4, §5, §6, §7, §8, §9

[11] = biological target: T11, proteins of U2OS cell lysate (Homo sapiens, UniProt P35268)
T11 construct: Proteins enriched by c-ponatinib from U2OS cell lysate; endogenous in cells; host or cells: U2OS cell lysate
Experimental: as §1, §2, §3, §4, §5, §6, §7, §8, §9

[12] = tested on: proteins of U2OS cell lysate
Experimental: as §1, §2, §3, §4, §5, §6, §7, §8, §9

[13] = biological target: T12, proteins of U2OS cell lysate (Homo sapiens, UniProt Q9Y262)
T12 construct: Proteins enriched by c-ponatinib from U2OS cell lysate; endogenous in cells; host or cells: U2OS cell lysate
Experimental: as §1, §2, §3, §4, §5, §6, §7, §8, §9

[14] = biological target: T13, proteins of U2OS cell lysate (Homo sapiens, UniProt P39656)
T13 construct: Proteins enriched by c-ponatinib from U2OS cell lysate; endogenous in cells; host or cells: U2OS cell lysate
Experimental: as §1, §2, §3, §4, §5, §6, §7, §8, §9

[15] = biological target: T14, proteins of U2OS cell lysate (Homo sapiens, UniProt P24539)
T14 construct: Proteins enriched by c-ponatinib from U2OS cell lysate; endogenous in cells; host or cells: U2OS cell lysate
T14 sequence (P24539 43-256): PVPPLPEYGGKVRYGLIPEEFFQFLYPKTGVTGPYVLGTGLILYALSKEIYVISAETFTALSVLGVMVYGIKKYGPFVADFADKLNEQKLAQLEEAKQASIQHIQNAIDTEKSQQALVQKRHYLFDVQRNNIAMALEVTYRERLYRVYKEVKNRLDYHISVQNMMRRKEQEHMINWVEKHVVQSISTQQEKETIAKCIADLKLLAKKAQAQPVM
Experimental: as §1, §2, §3, §4, §5, §6, §7, §8, §9

[16] = biological target: T15, proteins of U2OS cell lysate (Homo sapiens, UniProt Q01130)
T15 construct: Proteins enriched by c-ponatinib from U2OS cell lysate; endogenous in cells; host or cells: U2OS cell lysate
T15 sequence (Q01130 whole entry): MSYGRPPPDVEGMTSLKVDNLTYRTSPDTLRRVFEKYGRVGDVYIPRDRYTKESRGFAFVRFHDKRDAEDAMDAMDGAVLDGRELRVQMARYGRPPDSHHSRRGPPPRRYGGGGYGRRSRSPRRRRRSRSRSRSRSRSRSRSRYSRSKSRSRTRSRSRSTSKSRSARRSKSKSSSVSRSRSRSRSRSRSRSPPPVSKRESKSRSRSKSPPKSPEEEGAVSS
Experimental: as §1, §2, §3, §4, §5, §6, §7, §8, §9

[17] = biological target: T16, proteins of U2OS cell lysate (Homo sapiens, UniProt Q9UBN7)
T16 construct: Proteins enriched by c-ponatinib from U2OS cell lysate; endogenous in cells; host or cells: U2OS cell lysate
Experimental: as §1, §2, §3, §4, §5, §6, §7, §8, §9

[18] = biological target: T17, proteins of U2OS cell lysate (Homo sapiens, UniProt Q13347)
T17 construct: Proteins enriched by c-ponatinib from U2OS cell lysate; endogenous in cells; host or cells: U2OS cell lysate
T17 sequence (Q13347 whole entry): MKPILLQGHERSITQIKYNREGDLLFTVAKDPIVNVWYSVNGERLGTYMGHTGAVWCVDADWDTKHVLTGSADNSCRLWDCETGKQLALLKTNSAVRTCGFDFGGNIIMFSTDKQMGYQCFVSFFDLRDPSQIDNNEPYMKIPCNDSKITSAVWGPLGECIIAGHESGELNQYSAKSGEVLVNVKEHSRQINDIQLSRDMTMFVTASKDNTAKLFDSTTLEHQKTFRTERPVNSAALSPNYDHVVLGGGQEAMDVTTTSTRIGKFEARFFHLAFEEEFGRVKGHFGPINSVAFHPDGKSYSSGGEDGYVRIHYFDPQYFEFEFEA
Experimental: as §1, §2, §3, §4, §5, §6, §7, §8, §9

Cc1ccc(C(=O)Nc2ccc(CN3CCN(C)CC3)c(C(F)(F)F)c2)cc1C#Cc1cnc2cccnn12 [PON]
Average LFQ PON_WT ([1]; PHGDH, D-3-phosphoglycerate dehydrogenase): 23.086 | Average LFQ PON_WT ([2]; IPO7, Importin-7): 23.1828 | Average LFQ PON_WT ([3]; RUVBL2, RuvB-like 2): 22.2484 | Average LFQ PON_WT ([4]; IPO9, Importin-9): 21.5093 | Average LFQ PON_WT ([5]; MARCKSL1, MARCKS-related protein): 21.5548 | Average LFQ PON_WT ([6]; CLTB, Clathrin light chain B): 22.5074 | Average LFQ PON_WT ([7]; PSMA1, Proteasome subunit alpha type-1): 22.7928 | Average LFQ PON_WT ([8]; IMMT, Mitochondrial inner membrane protein): 22.0335 | Average LFQ PON_WT ([9]; PSMD1, 26S proteasome non-ATPase regulatory subunit 1): 21.8552 | Average LFQ PON_WT ([10]; SEPT2, Septin-2): 22.2443 | Average LFQ PON_WT ([11]; RPL22, 60S ribosomal protein L22): 21.5804 | Average LFQ PON_WT ([12]; ACTG1;ACTB;ACTG2;ACTA1;ACTC1;ACTA2, Actin, cytoplasmic 2): 29.1554 | Average LFQ PON_WT ([12]; HIST1H1C;HIST1H1E;HIST1H1D;HIST1H1A, Histone H1.2): 24.5034 | Average LFQ PON_WT ([13]; EIF3L, Eukaryotic translation initiation factor 3 subunit L): 22.8981 | Average LFQ PON_WT ([14]; DDOST, Dolichyl-diphosphooligosaccharide--protein glycosyltransferase 48 kDa subunit): 22.9075 | Average LFQ PON_WT ([15]; ATP5F1, ATP synthase subunit b, mitochondrial): 22.7408 | Average LFQ PON_WT ([16]; SRSF2, Serine/arginine-rich splicing factor 2): 22.8743 | Average LFQ PON_WT ([17]; HDAC6, Histone deacetylase 6): 22.8295 | Average LFQ PON_WT ([18]; EIF3I, Eukaryotic translation initiation factor 3 subunit I): 22.8398

Cc1ccc(C(=O)Nc2ccc(CN3CCN(CCCN)CC3)c(C(F)(F)F)c2)cc1C#Cc1cnc2cccnn12 [c-ponatinib, reference compound]
Average LFQ intensity ([1]; captured protein PHGDH, Rank 119): 23.086 | Average LFQ intensity ([2]; captured protein IPO7, Rank 116): 23.1828 | Average LFQ intensity ([3]; captured protein RUVBL2, Rank 173): 22.2484 | Average LFQ intensity ([4]; captured protein IPO9, Rank 229): 21.5093 | Average LFQ intensity ([5]; captured protein MARCKSL1, Rank 225): 21.5548 | Average LFQ intensity ([6]; captured protein CLTB, Rank 157): 22.5074 | Average LFQ intensity ([7]; captured protein PSMA1, Rank 138): 22.7928 | Average LFQ intensity ([8]; captured protein IMMT, Rank 188): 22.0335 | Average LFQ intensity ([9]; captured protein PSMD1, Rank 199): 21.8552 | Average LFQ intensity ([10]; captured protein 2002-09-01 (Septin-2), Rank 174): 22.2443 | Average LFQ intensity ([11]; captured protein RPL22, Rank 221): 21.5804 | Average LFQ intensity ([12]; captured protein ACTR1A;ACTR1B, Rank 131): 22.8935 | Average LFQ intensity ([12]; captured protein ATP1A1;ATP1A3;ATP1A2, Rank 167): 22.3247 | Average LFQ intensity ([12]; captured protein CDK1;CDK2, Rank 143): 22.743 | Average LFQ intensity ([12]; captured protein DYNLRB1;DYNLRB2, Rank 170): 22.2764 | Average LFQ intensity ([12]; captured protein GNB2;GNB4;GNB1, Rank 150): 22.669 | Average LFQ intensity ([12]; captured protein H3F3B;H3F3A;HIST2H3A;HIST3H3;HIST1H3A;H3F3C;HIST2H3PS2, Rank 159): 22.4876 | Average LFQ intensity ([12]; captured protein HNRNPA1;HNRNPA1L2, Rank 216): 21.6974 | Average LFQ intensity ([12]; captured protein LUC7L2;LUC7L, Rank 142): 22.7445 | Average LFQ intensity ([12]; captured protein MYL12A;MYL12B, Rank 201): 21.8427 | Average LFQ intensity ([12]; captured protein OGDH;OGDHL, Rank 189): 22.0277 | Average LFQ intensity ([12]; captured protein PSMA7;PSMA8, Rank 184): 22.0977 | Average LFQ intensity ([12]; captured protein RAB11A;RAB11B, Rank 162): 22.3634 | Average LFQ intensity ([12]; captured protein RPS10;RPS10P5, Rank 217): 21.6692 | Average LFQ intensity ([12]; captured protein RPS26;RPS26P11, Rank 219): 21.6239 | Average LFQ intensity ([12]; captured protein RPS27L;RPS27, Rank 208): 21.7512 | Average LFQ intensity ([12]; captured protein SNRPN;SNRPB, Rank 206): 21.7664 | Average LFQ intensity ([13]; captured protein EIF3L, Rank 130): 22.8981 | Average LFQ intensity ([14]; captured protein DDOST, Rank 129): 22.9075 | Average LFQ intensity ([15]; captured protein ATP5F1, Rank 144): 22.7408 | Average LFQ intensity ([16]; captured protein SRSF2, Rank 132): 22.8743 | Average LFQ intensity ([17]; captured protein HDAC6, Rank 137): 22.8295 | Average LFQ intensity ([18]; captured protein EIF3I, Rank 135): 22.8398
